ChEMBL document CHEMBL1250502, “An alignment independent 3D QSAR study of the antiproliferative activity of 1,2,4,5-tetraoxanes” (Eur J Med Chem, 2010)

Key:
[1] = tested on: HeLa; experiment: Cytotoxicity against human HeLa cells; type: functional, cell-based; settings: for IC50: Homo sapiens, HeLa; for pIC50: hela
[2] = Cytotoxicity against human Fem-X cells; type: functional, cell-based; settings: for IC50: Homo sapiens, Fem-X; for pIC50: fem-x

Structure (SMILES)	IC50 ([1]; read-out: pIC50 (converted)) [µM]	IC50 ([2]; read-out: pIC50 (converted)) [µM]	IC50 ([1]; read-out: IC50) [µM]	IC50 ([2]; read-out: IC50) [µM]	pIC50 [1]	pIC50 [2]
CCCNC(=O)CC[C@@H](C)[C@H]1CC[C@H]2[C@@H]3CC[C@@H]4CC5(CC[C@]4(C)[C@H]3C[C@H](OC(C)=O)[C@]12C)OOC1(CCCCC1)OO5	6.46	13.2	–	–	–	–
CC(=O)O[C@H]1C[C@H]2[C@@H](CC[C@@H]3CC4(CC[C@@]32C)OOC2(CCCCC2)OO4)[C@@H]2CC[C@H]([C@H](C)CCC(=O)N3CCCCC3)[C@@]12C	7.24	9.12	–	–	–	–
CCCNC(=O)C1CCC2(CC1)OOC1(CCCCC1)OO2	117	102	–	–	–	–
CN(C)CCNC(=O)C1CCC2(CC1)OOC1(CCCCC1)OO2	135	120	–	–	–	–
COC(=O)C1CCC2(CC1)OOC1(CCCCC1)OO2	75.9	72.4	–	–	–	–
O=C(O)C1CCC2(CC1)OOC1(CCCCC1)OO2	120	155	–	–	–	–
CCC1CCC2(CC1)OOC1(CC[C@@]3(C)[C@H](CC[C@@H]4[C@@H]3C[C@H](OC(C)=O)[C@]3(C)[C@@H]([C@H](C)CCC(N)=O)CC[C@@H]43)C1)OO2 (some centres undefined)	5.25	5.01	5.3	4.3	–	–
CCC1CCC2(CC1)OOC1(CC[C@@]3(C)[C@H](CC[C@@H]4[C@@H]3C[C@H](OC(C)=O)[C@]3(C)[C@@H]([C@H](C)CCC(=O)NC)CC[C@@H]43)C1)OO2 (some centres undefined)	4.9	6.92	6.9	8.82	–	–
CCNC(=O)CC[C@@H](C)[C@H]1CC[C@H]2[C@@H]3CC[C@@H]4CC5(CC[C@]4(C)[C@H]3C[C@H](OC(C)=O)[C@]12C)OOC1(CCC(CC)CC1)OO5 (some centres undefined)	6.92	6.76	6.7	7	–	–
CCC1CCC2(CC1)OOC1(CC[C@@]3(C)[C@H](CC[C@@H]4[C@@H]3C[C@H](OC(C)=O)[C@]3(C)[C@@H]([C@@H](C)CCC(N)=O)CC[C@@H]43)C1)OO2 (some centres undefined)	4.07	4.27	4.9	4.5	–	–
CCC1CCC2(CC1)OOC1(CC[C@@]3(C)[C@H](CC[C@@H]4[C@@H]3C[C@H](OC(C)=O)[C@]3(C)[C@@H]([C@@H](C)CCC(=O)NC)CC[C@@H]43)C1)OO2 (some centres undefined)	6.76	4.47	6.1	5	–	–
CCNC(=O)CC[C@H](C)[C@H]1CC[C@H]2[C@@H]3CC[C@@H]4CC5(CC[C@]4(C)[C@H]3C[C@H](OC(C)=O)[C@]12C)OOC1(CCC(CC)CC1)OO5 (some centres undefined)	6.92	8.91	6.9	6.7	–	–
CC(=O)O[C@H]1C[C@H]2[C@@H](CC[C@@H]3CC4(CC[C@@]32C)OOC2(CCCCC2)OO4)[C@@H]2CC[C@H]([C@H](C)CCC(=O)O)[C@@]12C	6.92	25.1	–	–	–	–
NC(=O)C1CCC2(CC1)OOC1(CCCCC1)OO2	115	120	–	–	–	–
COC(=O)CC[C@@H](C)[C@H]1CC[C@H]2[C@@H]3CC[C@@H]4CC5(CC[C@]4(C)[C@H]3C[C@H](OC(C)=O)[C@]12C)OOC1(CCC(C)CC1)OO5 (stereo in doubt; 13)	–	–	–	–	4.96	4.13
COC(=O)CC[C@@H](C)[C@H]1CC[C@H]2[C@@H]3CC[C@@H]4CC5(CC[C@]4(C)[C@H]3C[C@H](OC(C)=O)[C@]12C)OOC1(CCC(C)CC1)OO5 (stereo in doubt; 14)	–	–	–	–	5.3	4.6
